ChEMBL document CHEMBL5550112, “Development of a fluorescent ligand that can illuminate nuclear G-quadruplexes and modulate oncogene expression” (Bioorg Med Chem, 2024)
Activity calls are given as the source filed them. No cut-off for these calls is given here.

What was measured:
MDA-MB-231 [1] = assay: Induction of cell death in human MDA-MB-231 cells cultured as 3D tumor spheroids assessed as increase in red fluorescence intensity at 20 uM incubated for 7 days by propidium iodide staining based imaging analysis; format: functional; details: time 7.0 day
MDA-MB-231 [2] = assay: Induction of apoptosis in human MDA-MB-231 cells assessed as downregulation of PARP protein expression at 10 to 20 uM incubated for 24 hrs by Western blot analysis; format: functional, cell-based; details: dose 10-20 µM
Quadruplex DNA [3] = assay: Binding affinity to Antiparallel c-KIT G-quadruplex DNA (unknown origin) assessed as increase in fluorescence intensity at 5 uM by fluorescence spectrophotometric analysis; format: nucleic-acid assay
Quadruplex DNA [4] = assay: Binding affinity to c-MYC G-quadruplex DNA (unknown origin) assessed as fluorescence quantum yield by fluorescence spectrophotometric analysis; format: nucleic-acid assay
Quadruplex DNA [5] = assay: Binding affinity to 3'-Cy5-labelled c-MYC G-quadruplex DNA (unknown origin) assessed as decrease in Cy5 fluorescence upto 5 uM by fluorescence quenching analysis; format: nucleic-acid assay
MDA-MB-231 [6] = assay: Induction of cell cycle arrest in human MDA-MB-231 cells assessed as accumulation of cells at G2-M phase at 15 uM incubated for 24 hrs by flow cytometry (reference value: 16.8 %); format: functional
MDA-MB-231 [7] = assay: Induction of apoptosis in human MDA-MB-231 cells assessed as downregulation of c-MYC gene expression at 10 to 20 uM incubated for 24 hrs by RT-PCR analysis; format: functional, cell-based; details: dose 10-20 µM
MDA-MB-231 [8] = assay: Induction of cell cycle arrest in human MDA-MB-231 cells assessed as accumulation of cells at G0-G1 phase at 10 uM incubated for 24 hrs by flow cytometry (reference value: 69.6 %); format: functional
MDA-MB-231 [9] = assay: Induction of cell cycle arrest in human MDA-MB-231 cells assessed as accumulation of cells at G0-G1 phase at 15 uM incubated for 24 hrs by flow cytometry (reference value: 69.6 %); format: functional
DNA = assay: Binding affinity to Duplex DNA (unknown origin) assessed as hypochromic red shift at 5 uM by absorption spectra analysis; format: nucleic-acid assay
MDA-MB-231 [10] = assay: Induction of cell cycle arrest in human MDA-MB-231 cells assessed as accumulation of cells at S phase at 20 uM incubated for 24 hrs by flow cytometry (reference value: 13 %); format: functional
Quadruplex DNA [11] = assay: Binding affinity to c-MYC G-quadruplex DNA (unknown origin) assessed as dissociation constant by fluorescence spectrophotometric analysis; format: nucleic-acid assay
MDA-MB-231 [12] = assay: Induction of cell death in human MDA-MB-231 cells cultured as 3D tumor spheroids assessed as increase in red fluorescence intensity at 40 uM incubated for 7 days by propidium iodide staining based imaging analysis; format: functional; details: time 7.0 day
Quadruplex DNA [13] = assay: Binding affinity to G-quadruplex DNA in human MDA-MB-231 cells assessed as increase in fluorescence at 2 uM incubated for 30 mins by RNase A digestion based confocal microscopic analysis; format: cell-based
MDA-MB-231 [14] = assay: Induction of apoptosis in human MDA-MB-231 cells assessed as downregulation of KRAS gene expression at 10 to 20 uM incubated for 24 hrs by RT-PCR analysis; format: functional, cell-based; details: dose 10-20 µM
Albumin = Albumin (Bos taurus, UniProt P02769); assay: Binding affinity to bovine serum albumin assessed as increase in fluorescence intensity at 5 uM by fluorescence spectrophotometric analysis; format: cell-free; details: cattle
Quadruplex DNA [15] = assay: Binding affinity to 5'-Cy5-labelled c-MYC G-quadruplex DNA (unknown origin) assessed as dissociation constant by fluorescence quenching analysis; format: nucleic-acid assay
MDA-MB-231 [16] = assay: Induction of cell cycle arrest in human MDA-MB-231 cells assessed as accumulation of cells at sub-G1 phase at 10 uM incubated for 24 hrs by flow cytometry (reference value: 0.6 %); format: functional
Quadruplex DNA [17] = assay: Stabilization of FAM/TAMRA-labelled c-MYC G-quadruplex DNA (unknown origin) assessed as change in melting temperature in presence of duplex DNA by FRET assay; format: nucleic-acid assay
Quadruplex DNA [18] = assay: Binding affinity to 5'-Cy5-labelled c-MYC G-quadruplex DNA (unknown origin) assessed as decrease in Cy5 fluorescence upto 5 uM by fluorescence quenching analysis; format: nucleic-acid assay
HEK-293T = assay: Effect on c-MYC gene expression in human HEK293T cells co-transfected with c-Myc promoter luciferase reporter assessed as decrease in c-MYC expression by measuring reduction in firefly luciferase expression at 10 to 20 uM incubated for 24 hrs by firefly luciferase based microplate analysis; format: functional, cell-based; details: dose 10-20 µM
Quadruplex DNA [19] = assay: Binding affinity to Parallel KRAS G-quadruplex DNA (unknown origin) assessed as increase in fluorescence intensity at 5 uM by fluorescence spectrophotometric analysis; format: nucleic-acid assay
Quadruplex DNA [20] = assay: Stabilization of FAM/TAMRA-labelled KRAS G-quadruplex DNA (unknown origin) assessed as change in melting temperature in presence of duplex DNA by FRET assay; format: nucleic-acid assay
Quadruplex DNA [21] = assay: Displacement of […] from G-quadruplex DNA in human MDA-MB-231 cells assessed as increase in fluorescence at 2 uM preincubated for 30 mins followed by PDS addition and measured after 20 mins by Hoechst 33342 staining based confocal microscopic analysis; format: cell-based; details: time 50.0 min
Quadruplex DNA [22] = assay: Binding affinity to Parallel c-KIT2 G-quadruplex DNA (unknown origin) assessed as increase in fluorescence intensity at 5 uM by fluorescence spectrophotometric analysis; format: nucleic-acid assay
Quadruplex DNA [23] = assay: Binding affinity to Antiparallel ODN G-quadruplex DNA (unknown origin) assessed as increase in fluorescence intensity at 5 uM by fluorescence spectrophotometric analysis; format: nucleic-acid assay
MDA-MB-231 [24] = assay: Inhibition of colony formation in human MDA-MB-231 cells at 1.5 to 6 uM incubated for 3 days by crystal violet staining based analysis; format: functional, cell-based; details: dose 1.5-6 µM, time 3.0 day
Quadruplex DNA [25] = assay: Binding affinity to G-quadruplex DNA in human MDA-MB-231 cells assessed as increase in fluorescence at 2 uM incubated for 30 mins by DNase I digestion based confocal microscopic analysis; format: cell-based
MDA-MB-231 [26] = assay: Induction of apoptosis in human MDA-MB-231 cells assessed as downregulation of c-MYC protein expression at 10 to 20 uM incubated for 24 hrs by Western blot analysis; format: functional, cell-based; details: dose 10-20 µM

Albumin, sequence (P02769 whole entry): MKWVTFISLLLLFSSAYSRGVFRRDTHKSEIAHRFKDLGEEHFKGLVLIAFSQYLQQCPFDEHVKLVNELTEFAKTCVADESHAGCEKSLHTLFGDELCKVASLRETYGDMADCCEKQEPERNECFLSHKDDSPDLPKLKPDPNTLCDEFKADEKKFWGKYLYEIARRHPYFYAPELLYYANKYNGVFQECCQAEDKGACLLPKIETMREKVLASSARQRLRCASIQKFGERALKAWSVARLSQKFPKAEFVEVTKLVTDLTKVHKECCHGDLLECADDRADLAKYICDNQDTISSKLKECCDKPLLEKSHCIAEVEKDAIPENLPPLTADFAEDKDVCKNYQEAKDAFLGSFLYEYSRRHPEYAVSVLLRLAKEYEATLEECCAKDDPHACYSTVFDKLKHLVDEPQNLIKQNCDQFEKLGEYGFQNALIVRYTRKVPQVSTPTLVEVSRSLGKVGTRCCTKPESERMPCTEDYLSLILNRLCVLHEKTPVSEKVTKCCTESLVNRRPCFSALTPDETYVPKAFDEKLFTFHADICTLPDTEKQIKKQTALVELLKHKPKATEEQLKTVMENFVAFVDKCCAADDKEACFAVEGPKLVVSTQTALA

CCn1c2ccccc2c2cc(/C=C/c3sc4ccccc4[n+]3C)ccc21.[I-]
Activity (MDA-MB-231 [1]): Active | Activity (MDA-MB-231 [2]): Active | Activity (Quadruplex DNA [3]): Active | Activity (Quadruplex DNA [4]): 0.3 | Activity (Quadruplex DNA [5]): Active | Activity (MDA-MB-231 [6]): 10.3% | Activity (MDA-MB-231 [7]): Active | Activity (MDA-MB-231 [8]): 66.5% | Activity (MDA-MB-231 [9]): 47.2% | Activity (DNA): Active | Activity (MDA-MB-231 [10]): 8.6% | Kd (Quadruplex DNA [11]): 700 nM | Activity (MDA-MB-231 [12]): Active | Activity (Quadruplex DNA [13]): Active | Activity (MDA-MB-231 [14]): Active | Activity (Albumin): Not Active | Kd (Quadruplex DNA [15]): 1100 nM | Activity (MDA-MB-231 [16]): 3% | ΔTm (Quadruplex DNA [17]): 8.1 °C | Activity (Quadruplex DNA [18]): Active | Activity (HEK-293T): Active | Activity (Quadruplex DNA [19]): Active | ΔTm (Quadruplex DNA [20]): 14 °C | Activity (Quadruplex DNA [21]): inactive | Activity (Quadruplex DNA [22]): Active | Activity (Quadruplex DNA [23]): Active | inhibition (MDA-MB-231 [24]): Active | Activity (Quadruplex DNA [25]): inactive | Activity (MDA-MB-231 [26]): Active
